pKd: −log10 of the molar value.

As usually defined, the pKd is the negative decadic logarithm of the Kd, by convention in mol/L. Low values mean a high Kd, high ones a low Kd.

A short description of the assay: Binding affinity to biotinylated hairpin DNA by surface plasmon resonance assay. For orientation: SPR reads the build-up and loss of mass on a sensor chip optically.

`CC(=O)Nc1cn(C)c(C(=O)Nc2cc(C(=O)NCCC(=O)Nc3cn(C)c(C(=O)Nc4cc(C(=O)NCCCC(=O)Nc5cn(C)c(C(=O)Nc6cc(C(=O)NCCC(=O)Nc7cn(C)c(C(=O)Nc8cc(C(=O)NCCC(=O)NCCCN(C)C)n(C)c8)n7)n(CC#Cc7ccc8ccc9cccc%10ccc7c8c9%10)c6)n5)n(CC#Cc5ccc6ccc7cccc8ccc5c6c78)c4)n3)n(C)c2)n1` showed a pKd of 6.08.

Values taken from ChEMBL document CHEMBL1150368, “Detection of triplet repeat sequences in the double-stranded DNA using pyrene-functionalized pyrrole-imidazole polyamides with rigid linkers” (Bioorg Med Chem, 2008).
